Data from patent US20100204128A1, “NOVEL PEPTIDES” (SANARE INVESTMENT AS, priority 2007, published 2010).
Values joined by “and” are separate entries in the source; they are usually repeats but may differ in a detail not shown here. Equal entries are not always repeated.

What was measured:
Assay type in all cases: cell-based
Details in all cases: 24 hours, duplicate wells
T47D cells = assay: AlmarBlue fluorescence cell growth test, T47D cells
Procedure: (§1) Re-feed media were prepared to yield the following final six concentrations of each of the 12 peptides: 5×10^−3, 5×10^−4, 5×10^−5, 5×10^−6, 5×10^−7, and 5×10^−8M. […] With that, the 5×10^−3M mixture contains about 0.42×10^−3M of each peptide. […] With that, the 5×10^−3M mixture contains about 0.42×10^−3M of each of said 8 peptides.
(§2) MCF-7 and T47D cells were seeded into 96-well plates at a density of 10,000 cells per well in 90 μL of appropriate culture medium. TMX2-28 cells were seeded into 96-well plates at a density of 5,000 cells per well in 90 μL of appropriate culture medium. Plates were placed in a 37° C., 5% CO2 incubator and cells were allowed to attach to the bottom of the well for 24 hours after which 10 μL of the appropriate refeed medium was added. Each concentration was tested in duplicate in each cell line. […] Cells were then incubated for 24 hours. Subsequently 10 μL of AlmarBlue (Biosource) was added to each well. After three hours, the fluorescence was detected using a Packard Instrument Plate Reader with 535/20 excitation and 590/20 emission filters.

MCF-7 cells = assay: AlmarBlue fluorescence cell growth test, MCF-7 cells
Procedure: as §1, §2

TMX2-28 cells = assay: AlmarBlue fluorescence cell growth test, TMX2-28 cells
Procedure: With that, the 5×10^−3M mixture contains about 0.42×10^−3M of each peptide. Furthermore, mixtures containing equal volumes of peptides SEQ ID NO:2-SEQ ID NO:7, SEQ ID NO:10 and SEQ ID NO:11 were also prepared (equal volumes of said re-feed media) to yield the following final six concentrations: […] With that, the 5×10^−3M mixture contains about […].
as §2

[1] = 5 × 10^−4 M (mixtures: total concentration), decrease vs DC5 = reduced cell growth
[2] = 5 × 10^−5 M (mixtures: total concentration)
[3] = 5 × 10^−6 M (mixtures: total concentration)
[4] = 5 × 10^−7 M (mixtures: total concentration)
[5] = 5 × 10^−8 M (mixtures: total concentration)
[6] = 5 × 10^−9 M (mixtures: total concentration)

Substance | fluorescent readings (T47D cells; [1]) | fluorescent readings (T47D cells; [2]) | fluorescent readings (T47D cells; [3]) | fluorescent readings (T47D cells; [4]) | fluorescent readings (T47D cells; [5]) | fluorescent readings (T47D cells; [6]) | fluorescent readings (MCF-7 cells; [1]) | fluorescent readings (MCF-7 cells; [2]) | fluorescent readings (MCF-7 cells; [3]) | fluorescent readings (MCF-7 cells; [4]) | fluorescent readings (MCF-7 cells; [5]) | fluorescent readings (MCF-7 cells; [6]) | fluorescent readings (TMX2-28 cells; [1]) | fluorescent readings (TMX2-28 cells; [2]) | fluorescent readings (TMX2-28 cells; [3]) | fluorescent readings (TMX2-28 cells; [4]) | fluorescent readings (TMX2-28 cells; [5]) | fluorescent readings (TMX2-28 cells; [6])
SEQIDNO6: synthesised peptide identified in the 10 kDa blood fraction after acupuncture; sequence not printed in the text (RKEGKGERE; Derived from human blood sample) | 60992 and 68394 | 57868 and 68983 | 66902 and 68862 | 65508 and 66620 | 65244 and 64730 | 61392 and 63577 | 69282 and 66723 | 69071 and 69114 | 67961 and 70454 | 66967 and 68329 | 65221 and 65987 | 60855 and 61454 | 68949 and 68566 | 70355 and 69358 | 70389 and 69887 | 71096 and 70512 | 70707 and 71208 | 62308 and 64367
SEQIDNO2: synthesised peptide identified in the 10 kDa blood fraction after acupuncture; sequence not printed in the text (KVGAHAGEYGAEALER; Derived from human blood sample) | 66780 and 68474 | 67257 and 66607 | 63525 and 67453 | 64064 and 66021 | 62463 and 63876 | 57744 and 60399 | 68630 and 65876 | 66492 and 66554 | 65617 and 65531 | 63699 and 63627 | 63539 and 63477 | 63298 and 62132 | 70121 and 70743 | 70162 and 68517 | 69083 and 71861 | 72557 and 73134 | 72061 and 73603 | 68910 and 72372
SEQIDNO8: synthesised peptide identified in the 10 kDa blood fraction after acupuncture; sequence not printed in the text (GVLLVRAPPACLQVLR; Derived from human blood sample) | 62688 and 60767 | 68041 and 64777 | 66479 and 60908 | 65388 and 63864 | 64353 and 63685 | 64124 and 63134 | 64002 and 64485 | 68720 and 70447 | 69897 and 70376 | 68985 and 70404 | 68423 and 68263 | 61653 and 66015 | 63114 and 65457 | 67475 and 69324 | 68833 and 70414 | 70559 and 72074 | 70603 and 73593 | 68676 and 68864
SEQIDNO12: synthesised peptide identified in the 10 kDa blood fraction after acupuncture; sequence not printed in the text (PVLTLDMPSSERGK; Derived from human blood sample) | 57184 and 62215 | 62230 and 62786 | 64065 and 63826 | 64023 and 65295 | 65019 and 65289 | 62179 and 65227 | 64634 and 66223 | 67452 and 68292 | 67604 and 67923 | 65967 and 68650 | 64530 and 64993 | 59810 and 61717 | 64801 and 66313 | 67335 and 67800 | 69868 and 69586 | 67062 and 68845 | 68382 and 67167 | 66458 and 66191
SEQIDNO4: synthesised peptide identified in the 10 kDa blood fraction after acupuncture; sequence not printed in the text (KFLQAKFYQLSLERP; Derived from human blood sample) | 65000 and 63427 | 66449 and 66303 | 66808 and 65677 | 65859 and 65314 | 66040 and 64619 | 57800 and 59394 | 64475 and 66716 | 63637 and 66597 | 65699 and 66767 | 64278 and 64885 | 64878 and 64702 | 61356 and 61062 | 68299 and 67310 | 67939 and 68552 | 69917 and 70618 | 70744 and 72469 | 71761 and 72585 | 70255 and 70823
